# Results taken from patent US7186701B2, “Dehydrating agent and method for dehydrating moist article using the agent and dehydrated article obtained by the method” (Kabushiki Kaisha Hayashibara Seibutsu Kagaku Kenkyujo, priority 2001, dated 2007).
# Where two headings read alike, the source gives them in different places.
# Columns and labels:
# [1] = Dehydration and pulverization of plain yogurt by non-reducing saccharide; design: unit not given here
# Procedure: The anhydrous crystalline cyclotetrasaccharide; crystalline cyclotetrasaccharide, monohydrate; and anhydrous amorphous cyclotetrasaccharide were respectively prepared by the methods in Examples A-1, A-2, and A-3. As the crystalline α,α-trehalose, dihydrate, a commercially available “TREHA®” commercialized by Hayashibara Shoji Inc., Okayama, Japan, was used. The anhydrous crystalline α,α-trehalose and the anhydrous amorphous α,α-trehalose used in this experiment were prepared from a commercialized crystalline α,α-trehalose, dihydrate, using the methods disclosed in Examples for Reference 1 and 3 in Japanese Patent Kokai No. 170,221/94. To four parts by weight of a plain yogurt with a moisture content of about 77% was added either of the above saccharides in an amount of 11 to 16 parts by weight. The resultant mixtures were respectively placed in vats, allowed to stand at 25° C. for 24 hours, and macroscopically observed their change on standing. The judgement was conducted in such a manner of sufficiently dehydrating the resulting mixtures to be solidified, subjected to a pulverizer for pulverization, and evaluated as “◯”, when the solids were easily pulverized; “Δ”, when the dehydration of the resulting mixtures was rather insufficient and the pulverization of solids was substantially difficult, though the resulting mixtures were solidified; and “x”, when the dehydration of the resulting mixtures was insufficient and could not be pulverized by a pulverizer.
# [2] = Dehydrating action: moisture absorption on standing at controlled relative humidity; type: physicochemical; conditions: for moisture content (%) by the Karl Fisher method: 25° C.
# From the text: Anhydrous crystalline cyclotetrasaccharide; crystalline cyclotetrasaccharide, monohydrate; anhydrous amorphous cyclotetrasaccharide; and crystalline cyclotetrasaccharide, penta- or hexa-hydrate were experimented in detail on their dehydrating actions, particularly, moisture absorption abilities against saccharides and changes on standing. As a control, anhydrous crystalline α,α-trehalose, anhydrous amorphous α,α-trehalose, and crystalline α,α-trehalose, dihydrate, were used as saccharides. The experiments were as follows: […]
# [3] = tested on: α-isomaltosylglucosaccharide-forming enzyme; experiment: Specificity of transfer acceptor (C9 enzyme); type: biochemical, Bacillus globisporus C9 strain; design: key: −: no saccharide-transferred product was detected through transferring reaction to acceptor; ±: a saccharide-transferred product was detected in an amount of less than one percent through transfer reaction to acceptor; +: a saccharide-transferred product was detected in an amount of at least one percent but less than ten percent through transferring reaction to acceptor; ++: a saccharide-transferred product was detected in an amount of at least ten percent through transferring reaction to acceptor; conditions: acceptor 1.6%, PINE-DEX #100 donor 4%, one unit/g donor, 30° C., pH 6.0, 24 hours
# Procedure: (§1) A variety of saccharides were tested whether they could be used as transferring-acceptors for the α-isomaltosylglucosaccharide-forming enzyme. A solution of D-glucose, D-xylose, L-xylose, D-galactose, D-fructose, D-mannose, D-arabinose, D-fucose, L-sorbose, L-rhamnose, methyl-α-glucopyranoside, methyl-β-glucopyranoside, N-acetyl-glucosamine, sorbitol, α,α-trehalose, isomaltose, isomaltotriose, cellobiose, gentibiose, maltitol, lactose, sucrose, α-cyclodextrin, β-cyclodextrin, or γ-cyclodextrin was prepared. […] The reaction mixtures after the enzymatic reactions were analyzed on gas chromatography (abbreviated as “GLC” hereinafter) for monosaccharides and disaccharides as acceptors, and on HPLC for trisaccharides and higher saccharides as acceptors to confirm whether these saccharides could be used as their transfer acceptors. In the case of performing GLC, the following apparatuses and conditions were used: […] In the case of HPLC analysis, the apparatuses and conditions used were: HPLC apparatus, “CCPD” commercialized by Tosoh Corporation, Tokyo, Japan; column, “ODS-AQ-303” commercialized by YMC Co., Ltd., Tokyo, Japan; eluent, water at a flow rate of 0.5 ml/min; and detection, a differential refractometer.
# [4] = tested on: α-isomaltosylglucosaccharide-forming enzyme; experiment: Specificity of transfer acceptor (C11 enzyme); type: biochemical, Bacillus globisporus C11 strain; design: key: −: no saccharide-transferred product was detected through transferring reaction to acceptor; ±: a saccharide-transferred product was detected in an amount of less than one percent through transfer reaction to acceptor; +: a saccharide-transferred product was detected in an amount of at least one percent but less than ten percent through transferring reaction to acceptor; ++: a saccharide-transferred product was detected in an amount of at least ten percent through transferring reaction to acceptor; conditions: acceptor 1.6%, PINE-DEX #100 donor 4%, one unit/g donor, 30° C., pH 6.0, 24 hours
# Procedure: as §1
# Aspergillus niger = experiment: Bacterial contamination of gelatinized starch (gyuhi); conditions: gyuhi with six parts by weight of saccharide, 25° C., open conditions
# Procedure: The mixture was mixed with a mixer and further mixed to homogeneity with two parts by weight of a starch hydrolyzate, shaped, and roughly dried for two hours, while blowing 40° C. hot air to the contents, to obtain “gyuhi” (a rice paste with sugar).
# [5] = relative humidity 75%, 3 days after treatment
# [6] = relative humidity 75%, 0 days after treatment
# [7] = relative humidity 75%, 1 day after treatment
# [8] = relative humidity 75%, 2 days after treatment
# [9] = relative humidity 75%, 7 days after treatment
compound,measurement,setting,value
"OC[C@H]1O[C@@H]2OC[C@H]3O[C@H](O[C@@H]4[C@@H](O)[C@@H](OC[C@H]5O[C@H](O[C@H]([C@H]2O)[C@@H]1O)[C@H](O)[C@@H](O)[C@@H]5O)O[C@H](CO)[C@H]4O)[C@H](O)[C@@H](O)[C@@H]3O [Saccharide C, anhydrous amorphous cyclotetrasaccharide]",Water content (before use),[1]; listed as C,0.3
same,moisture content (%) by the Karl Fisher method,"[2]; relative humidity 60%, 0 days after treatment, listed as C",0.3%
same,moisture content (%) by the Karl Fisher method,"[2]; relative humidity 60%, 1 day after treatment, listed as C",13.7%
same,moisture content (%) by the Karl Fisher method,"[2]; relative humidity 60%, 2 days after treatment, listed as C",13.8%
same,moisture content (%) by the Karl Fisher method,"[2]; relative humidity 60%, 3 days after treatment, listed as C",13.9%
same,moisture content (%) by the Karl Fisher method,"[2]; relative humidity 60%, 7 days after treatment, listed as C",14.1%
same,moisture content (%) by the Karl Fisher method,"[2]; relative humidity 75%, 0 days after treatment, listed as C",0.3%
same,moisture content (%) by the Karl Fisher method,"[2]; relative humidity 75%, 1 day after treatment, listed as C",14.2%
same,moisture content (%) by the Karl Fisher method,"[2]; relative humidity 75%, 2 days after treatment, listed as C",13.6%
same,moisture content (%) by the Karl Fisher method,"[2]; relative humidity 75%, 3 days after treatment, listed as C",13.7%
same,moisture content (%) by the Karl Fisher method,"[2]; relative humidity 75%, 7 days after treatment, listed as C",13.7%
same,"moisture absorption level, % of its weight","[2]; relative humidity of 60%, listed as anhydrous amorphous cyclotetrasaccharide",about 14%
"OC[C@H]1O[C@H](O[C@H]2O[C@H](CO)[C@@H](O)[C@H](O)[C@H]2O)[C@H](O)[C@@H](O)[C@@H]1O [Saccharide E, anhydrous crystalline α,α-trehalose, reference compound]",Water content (before use),[1]; listed as E,0.3
same,moisture content (%) by the Karl Fisher method,"[2]; relative humidity 75%, 0 days after treatment, listed as E",0.3%
same,moisture content (%) by the Karl Fisher method,"[2]; relative humidity 75%, 1 day after treatment, listed as E",9.7%
same,moisture content (%) by the Karl Fisher method,"[2]; relative humidity 75%, 2 days after treatment, listed as E",9.6%
same,moisture content (%) by the Karl Fisher method,[2]; [5],9.8%
same,moisture content (%) by the Karl Fisher method,"[2]; relative humidity 75%, 7 days after treatment, listed as E",9.8%
"OC[C@H]1O[C@H](O[C@H]2O[C@H](CO)[C@@H](O)[C@H](O)[C@H]2O)[C@H](O)[C@@H](O)[C@@H]1O [Saccharide F, anhydrous amorphous α,α-trehalose, reference compound]",Water content (before use),[1]; listed as F,0.8
same,moisture content (%) by the Karl Fisher method,"[2]; relative humidity 75%, 0 days after treatment, listed as F",0.8%
same,moisture content (%) by the Karl Fisher method,"[2]; relative humidity 75%, 1 day after treatment, listed as F",9.8%
same,moisture content (%) by the Karl Fisher method,"[2]; relative humidity 75%, 2 days after treatment, listed as F",9.7%
same,moisture content (%) by the Karl Fisher method,"[2]; relative humidity 75%, 7 days after treatment, listed as F",9.7%
"O.O.OC[C@H]1O[C@H](O[C@H]2O[C@H](CO)[C@@H](O)[C@H](O)[C@H]2O)[C@H](O)[C@@H](O)[C@@H]1O [Saccharide G, crystalline α,α-trehalose, dihydrate, reference compound]",Water content (before use),[1],9.7
same,moisture content (%) by the Karl Fisher method,[2]; [6],9.7%
same,moisture content (%) by the Karl Fisher method,[2]; [7],9.7%
same,moisture content (%) by the Karl Fisher method,[2]; [8],9.7%
same,moisture content (%) by the Karl Fisher method,[2]; [5],9.8%
same,moisture content (%) by the Karl Fisher method,[2]; [9],9.8%
"OC[C@H]1O[C@H](O[C@H]2O[C@H](CO)[C@@H](O)[C@H](O)[C@H]2O)[C@H](O)[C@@H](O)[C@@H]1O [α,α-Trehalose, α,α-trehalose, reference compound]","moisture absorption level, % of its weight",[2]; relative humidity of 75%,≤ 10%
same,"Product of saccharide transferring reaction, Enzyme of C9 strain",[3],++ (a saccharide-transferred product was detected in an amount of at least ten percent through transferring reaction to acceptor)
same,"Product of saccharide transferring reaction, Enzyme of C11 strain",[4],++ (a saccharide-transferred product was detected in an amount of at least ten percent through transferring reaction to acceptor)
"OC[C@H]1O[C@@H]2O[C@H]3[C@H](O)[C@@H](O)[C@@H](O[C@H]4[C@H](O)[C@@H](O)[C@@H](O[C@H]5[C@H](O)[C@@H](O)[C@@H](O[C@H]6[C@H](O)[C@@H](O)[C@@H](O[C@H]7[C@H](O)[C@@H](O)[C@@H](O[C@H]8[C@H](O)[C@@H](O)[C@@H](O[C@H]1[C@H](O)[C@H]2O)O[C@@H]8CO)O[C@@H]7CO)O[C@@H]6CO)O[C@@H]5CO)O[C@@H]4CO)O[C@@H]3CO [β-Cyclodextrin, β-cyclodextrin]","Product of saccharide transferring reaction, Enzyme of C9 strain",[3],−
same,"Product of saccharide transferring reaction, Enzyme of C11 strain",[4],−
"OC[C@H]1O[C@@H]2O[C@H]3[C@H](O)[C@@H](O)[C@@H](O[C@H]4[C@H](O)[C@@H](O)[C@@H](O[C@H]5[C@H](O)[C@@H](O)[C@@H](O[C@H]6[C@H](O)[C@@H](O)[C@@H](O[C@H]7[C@H](O)[C@@H](O)[C@@H](O[C@H]8[C@H](O)[C@@H](O)[C@@H](O[C@H]9[C@H](O)[C@@H](O)[C@@H](O[C@H]1[C@H](O)[C@H]2O)O[C@@H]9CO)O[C@@H]8CO)O[C@@H]7CO)O[C@@H]6CO)O[C@@H]5CO)O[C@@H]4CO)O[C@@H]3CO [γ-Cyclodextrin, γ-cyclodextrin]","Product of saccharide transferring reaction, Enzyme of C9 strain",[3],−
same,"Product of saccharide transferring reaction, Enzyme of C11 strain",[4],−
"crystalline cyclotetrasaccharide, monohydrate [Saccharide B]",Water content (before use),[1],2.7
same,moisture content (%) by the Karl Fisher method,"[2]; relative humidity 60%, 0 days after treatment",2.7%
same,moisture content (%) by the Karl Fisher method,"[2]; relative humidity 60%, 1 day after treatment",2.7%
same,moisture content (%) by the Karl Fisher method,"[2]; relative humidity 60%, 2 days after treatment",2.8%
same,moisture content (%) by the Karl Fisher method,"[2]; relative humidity 60%, 3 days after treatment",2.8%
same,moisture content (%) by the Karl Fisher method,"[2]; relative humidity 60%, 7 days after treatment",2.9%
same,moisture content (%) by the Karl Fisher method,[2]; [6],2.7%
same,moisture content (%) by the Karl Fisher method,[2]; [7],14.0%
same,moisture content (%) by the Karl Fisher method,[2]; [8],14.0%
same,moisture content (%) by the Karl Fisher method,[2]; [5],14.1%
same,moisture content (%) by the Karl Fisher method,[2]; [9],14.1%
same,"moisture absorption level, % of its weight",[2]; relative humidity of 75%,about 14%
"crystalline cyclotetrasaccharide, penta- or hexa-hydrate [Saccharide D]","colonies of Aspergillus niger found in gyuhi, days on standing",Aspergillus niger,15 days
